Test results from patent publication US10336760B2, “Inhibitors of cyclin-dependent kinase 7 (CDK7)” (SYROS PHARMACEUTICALS, INC., priority 2014, dated 2019).
Where two headings read alike, the source gives them in different places.

Columns and labels:
A673 cells = assay: Inhibition of A673 cell proliferation (CyQUANT); type: cell-based; conditions: Homo sapiens, read-out: A673 IC50
Experimental: Representative compounds of the invention were tested at different concentrations (from 4 μM to 126.4 pM; 0.5 log serial dilutions) for their ability to inhibit the proliferation of A673 cells. Known CDK inhibitors flavopiridol and triptolide were used as positive controls. Cells were grown in Dulbecco's Modified Eagle's Medium, +10% FBS+1 mM Sodium Pyruvate. The cells were cultured at 37° C. in a humidified chamber in the presence of 5% CO2. Proliferation assays were conducted over a 72 hour time period. CyQUANT® (Life Technologies, Chicago, Ill. USA) was used to assess the anti-proliferative effects of the compounds following manufacturer's directions and utilizing the reagents supplied with the CyQUANT® kit.

CDK7 = biological target: T1, CDK7 (Homo sapiens, UniProt P50613); assay: CDK7 kinase activity, Adapta kinase assay (Life Technologies); type: biochemical; conditions: read-out: CDK7 Inhibition (IC50); also: concentrations from 10 µM down to 0.514 nM
T1 construct: purchased Life Technologies (Grand Island, N.Y.), Adapta kinase assay service
Experimental: Compounds of the invention were assayed for CDK7 activity at Life Technologies (Grand Island, N.Y.) using their commercially available Adapta® kinase assay services. […] Details of this assay, including substrates used, are available on the Life Technologies web site (http://www.lifetechnologies.com/us/en/home/life-science/drug-discovery/target-and-lead-identification-and-validation/kinasebiology/kinase-activity-assays.html).

[1] = A673 cells, 72 hour proliferation, CyQUANT, 4 μM to 126.4 pM, 0.5 log serial dilutions

T1 sequence (P50613 whole entry): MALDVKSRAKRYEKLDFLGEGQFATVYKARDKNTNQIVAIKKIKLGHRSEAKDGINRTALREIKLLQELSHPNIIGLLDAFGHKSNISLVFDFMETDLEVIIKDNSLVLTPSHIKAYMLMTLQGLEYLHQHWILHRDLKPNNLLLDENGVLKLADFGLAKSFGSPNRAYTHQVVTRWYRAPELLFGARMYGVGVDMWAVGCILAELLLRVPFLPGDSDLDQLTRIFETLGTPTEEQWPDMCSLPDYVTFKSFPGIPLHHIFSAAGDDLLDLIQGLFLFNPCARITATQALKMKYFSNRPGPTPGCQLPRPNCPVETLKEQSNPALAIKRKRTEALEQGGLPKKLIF
T1 sequence (P51946 whole entry partner): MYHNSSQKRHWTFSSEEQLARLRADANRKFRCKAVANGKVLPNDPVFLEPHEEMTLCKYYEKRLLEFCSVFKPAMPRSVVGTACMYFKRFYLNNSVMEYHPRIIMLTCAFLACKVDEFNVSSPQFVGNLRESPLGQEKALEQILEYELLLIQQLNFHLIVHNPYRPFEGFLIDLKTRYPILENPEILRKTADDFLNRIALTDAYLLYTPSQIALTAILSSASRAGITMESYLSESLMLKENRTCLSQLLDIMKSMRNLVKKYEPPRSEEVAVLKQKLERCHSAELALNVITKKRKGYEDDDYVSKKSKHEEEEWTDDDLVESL
T1 sequence (P51948 whole entry partner): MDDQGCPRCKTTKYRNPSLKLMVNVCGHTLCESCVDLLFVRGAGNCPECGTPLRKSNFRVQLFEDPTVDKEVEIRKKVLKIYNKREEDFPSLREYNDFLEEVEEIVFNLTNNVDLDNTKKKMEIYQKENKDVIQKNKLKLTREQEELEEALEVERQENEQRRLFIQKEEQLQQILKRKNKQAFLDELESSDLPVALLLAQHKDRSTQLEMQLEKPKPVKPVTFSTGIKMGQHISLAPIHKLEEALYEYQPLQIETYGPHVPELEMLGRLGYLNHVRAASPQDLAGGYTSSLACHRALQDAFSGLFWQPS

Row | Compound | IC50 (A673 cells; [1]) | IC50 (CDK7) | IC50 (A673 cells; A673, 72 h)
1 | C=CC(=O)N1CCC(C(=O)N2CCC(C(=O)Nc3ncc(SCc4ncc(C(C)(C)C)o4)s3)CC2)CC1 [Compound 123, 1-(1-Acryloylpiperidine-4-carbonyl)-N-(5-(((5-(tert-butyl)oxazol-2-yl)methyl)thio)thiazol-2-yl)piperidine-4-carboxamide] | < 0.5 µM | – | –
2 | CC(C)c1cnn2c(NCc3ccccc3NC(=O)c3ccc(NC(=O)/C=C/CN(C)C)cc3)nc(OC3CCN(C)CC3)nc12 [Compound 103, (E)-4-(4-(dimethylamino)but-2-enamido)-N-(2-(((8-isopropyl-2-((1-methylpiperidin-4-yl)oxy)pyrazolo[1,5-a][1,3,5]triazin-4-yl)amino)methyl)phenyl)benzamide] | 0.5 to 5 µM | 0.1 to 1 µM | –
3 | CC(C)c1cnn2c(NC3CCN(C(=O)c4ccc(NC(=O)/C=C/CN(C)C)cc4)CC3)nc(OC3CCN(C)CC3)nc12 [Compound 102, (E)-4-(Dimethylamino)-N-(4-(4-((8-isopropyl-2-((1-methylpiperidin-4-yl)oxy)pyrazolo[1,5-a][1,3,5]triazin-4-yl)amino)piperidine-1-carbonyl)phenyl)but-2-enamide] | 0.5 to 5 µM | > 1 µM | –
4 | C=CC(=O)N1CCC(CN2CCC(C(=O)Nc3ncc(SCc4ncc(C(C)(C)C)o4)s3)CC2)CC1 [Compound 120, 1-((1-Acryloylpiperidin-4-yl)methyl)-N-(5-(((5-(tert-butyl)oxazol-2-yl)methyl)thio)thiazol-2-yl)piperidine-4-carboxamide] | – | > 1 µM | < 0.5 µM
5 | C=CC(=O)Nc1ccc(C(=O)N2CCC(C(=O)Nc3ncc(SCc4ncc(C(C)(C)C)o4)s3)CC2)cc1 [Compound 122, 1-(4-Acrylamidobenzoyl)-N-(5-(((5-(tert-butyl)oxazol-2-yl)methyl)thio)thiazol-2-yl)piperidine-4-carboxamide] | < 0.5 µM | – | –
6 | C=CC(=O)Nc1cccc(C(=O)N2CCC(C(=O)Nc3ncc(SCc4ncc(C(C)(C)C)o4)s3)CC2)c1 [Compound 117, 1-(3-Acrylamidobenzoyl)-N-(5-(((5-(tert-butyl)oxazol-2-yl)methyl)thio)thiazol-2-yl)piperidine-4-carboxamide] | < 0.5 µM | – | –
7 | C=CC(=O)N1CCCC(CN2CCC(C(=O)Nc3ncc(SCc4ncc(C(C)(C)C)o4)s3)CC2)C1 (centres unmarked) [Compound 125, 1-((1-Acryloylpiperidin-3-yl)methyl)-N-(5-(((5-(tert-butyl)oxazol-2-yl)methyl)thio)thiazol-2-yl)piperidine-4-carboxamide] | – | 0.1 to 1 µM | < 0.5 µM
8 | CN(C)C/C=C/C(=O)Nc1cccc(CN2CCC(C(=O)Nc3ncc(SCc4ncc(C(C)(C)C)o4)s3)CC2)c1 [Compound 127, (E)-N-(5-(((5-(tert-butyl)oxazol-2-yl)methyl)thio)thiazol-2-yl)-1-(3-(4-(dimethylamino)but-2-enamido)benzyl)piperidine-4-carboxamide] | < 0.5 µM | 0.1 to 1 µM | –
9 | C=CC(=O)Nc1ccc(CN2CCC(C(=O)Nc3ncc(SCc4ncc(C(C)(C)C)o4)s3)CC2)cc1 [Compound 119, 1-(4-Acrylamidobenzyl)-N-(5-(((5-(tert-butyl)oxazol-2-yl)methyl)thio)thiazol-2-yl)piperidine-4-carboxamide] | – | 0.1 to 1 µM | < 0.5 µM
10 | CC(C)c1cnn2c(NCc3ccccc3NCc3ccc(NC(=O)/C=C/CN(C)C)cc3)nc(OC3CCN(C)CC3)nc12 [Compound 104, (E)-4-(dimethylamino)-N-(4-(((2-(((8-isopropyl-2-((1-methylpiperidin-4-yl)oxy)pyrazolo[1,5-a][1,3,5]triazin-4-yl)amino)methyl)phenyl)amino)methyl)phenyl)but-2-enamide] | < 0.5 µM | < 0.1 µM | –
11 | C=CC(=O)Nc1cccc(C(C)N2CCC(C(=O)Nc3ncc(SCc4ncc(C(C)(C)C)o4)s3)CC2)c1 (centres unmarked) [Compound 121, 1-(1-(3-Acrylamidophenyl)ethyl)-N-(5-(((5-(tert-butyl)oxazol-2-yl)methyl)thio)thiazol-2-yl)piperidine-4-carboxamide] | – | 0.1 to 1 µM | < 0.5 µM
12 | CC(C)c1cnn2c(NCc3ccccc3N3CCN(C(=O)/C=C/CN(C)C)CC3)nc(OC3CCN(C)CC3)nc12 [Compound 105, (E)-4-(Dimethylamino)-1-(4-(2-(((8-isopropyl-2-((1-methylpiperidin-4-yl)oxy)pyrazolo[1,5-a][1,3,5]triazin-4-yl)amino)methyl)phenyl)piperazin-1-yl)but-2-en-1-one] | < 0.5 µM | < 0.1 µM | –
13 | C=CC(=O)Nc1cccc(CN2CCC(C(=O)Nc3ncc(SCc4ncc(C(C)(C)C)o4)s3)CC2)c1 [Compound 118, 1-(3-Acrylamidobenzyl)-N-(5-(((5-(tert-butyl)oxazol-2-yl)methyl)thio)thiazol-2-yl)piperidine-4-carboxamide] | – | 0.1 to 1 µM | < 0.5 µM
